Assay results reported in US8552176B2 (priority 2010, dated 2013).

Legend:
SF-268 [1] = experiment: NCI 60 Human Tumor Cell Line Anticancer Screen; assay type: cell-based; conditions: SF-268, CNS
DU-145 = experiment: cells; assay type: cell-based, human; conditions: read-out: GI50 DU-145 prostate
SR = experiment: NCI 60 Human Tumor Cell Line Anticancer Screen; assay type: cell-based; conditions: Leukemia
HCC-2998 = experiment: NCI 60 Human Tumor Cell Line Anticancer Screen; assay type: cell-based; conditions: HCC-2998, Colon
MOLT-4 = experiment: NCI 60 Human Tumor Cell Line Anticancer Screen; assay type: cell-based; conditions: MOLT-4, Leukemia
H1299 = experiment: cells; assay type: cell-based, human
NCI-H226 = experiment: NCI 60 Human Tumor Cell Line Anticancer Screen; assay type: cell-based; conditions: NCI-H226, Non-small cell lung
SF-268 [2] = experiment: cells; assay type: cell-based, human; conditions: read-out: GI50 SF-268 CNS
RPMI-8226 = experiment: NCI 60 Human Tumor Cell Line Anticancer Screen; assay type: cell-based; conditions: RPMI-8226, Leukemia
MDA-MB-231 = experiment: NCI 60 Human Tumor Cell Line Anticancer Screen; assay type: cell-based; conditions: MDA-MB-231, Breast
MALME-3M = experiment: NCI 60 Human Tumor Cell Line Anticancer Screen; assay type: cell-based; conditions: Melanoma
SK-MEL-5 = experiment: NCI 60 Human Tumor Cell Line Anticancer Screen; assay type: cell-based; conditions: SK-MEL-5, Melanoma
SNB-19 = experiment: NCI 60 Human Tumor Cell Line Anticancer Screen; assay type: cell-based; conditions: SNB-19, CNS
A498 = experiment: NCI 60 Human Tumor Cell Line Anticancer Screen; assay type: cell-based; conditions: A498, Renal
HCT-15 [3] = experiment: cells; assay type: cell-based, human
OVCAR-8 = experiment: NCI 60 Human Tumor Cell Line Anticancer Screen; assay type: cell-based; conditions: OVCAR-8, Ovary
U251 = experiment: NCI 60 Human Tumor Cell Line Anticancer Screen; assay type: cell-based; conditions: U251, CNS
K-562 = experiment: NCI 60 Human Tumor Cell Line Anticancer Screen; assay type: cell-based; conditions: K-562, Leukemia
ACHN = experiment: NCI 60 Human Tumor Cell Line Anticancer Screen; assay type: cell-based; conditions: Renal
KM12 = experiment: NCI 60 Human Tumor Cell Line Anticancer Screen; assay type: cell-based; conditions: KM12, Colon
MCF7 = experiment: cells; assay type: cell-based, human; conditions: read-out: GI50 MCF7 breast
CAKI-1 = experiment: NCI 60 Human Tumor Cell Line Anticancer Screen; assay type: cell-based; conditions: CAKI-1, Renal
HOP-62 = experiment: NCI 60 Human Tumor Cell Line Anticancer Screen; assay type: cell-based; conditions: HOP-62, Non-small cell lung
SF-295 = experiment: NCI 60 Human Tumor Cell Line Anticancer Screen; assay type: cell-based; conditions: SF-295, CNS
HT29 = experiment: cells; assay type: cell-based, human
TK-10 = experiment: NCI 60 Human Tumor Cell Line Anticancer Screen; assay type: cell-based; conditions: TK-10, Renal
HOP-92 = experiment: NCI 60 Human Tumor Cell Line Anticancer Screen; assay type: cell-based; conditions: HOP-92, Non-small cell lung
SK-MEL-2 = experiment: NCI 60 Human Tumor Cell Line Anticancer Screen; assay type: cell-based; conditions: SK-MEL-2, Melanoma
OVCAR-4 = experiment: NCI 60 Human Tumor Cell Line Anticancer Screen; assay type: cell-based; conditions: OVCAR-4, Ovary
HCT-15 [4] = experiment: NCI 60 Human Tumor Cell Line Anticancer Screen; assay type: cell-based; conditions: HCT-15, Colon

CON(CCCCc1ccc(N(CCCl)CCCl)cc1)C1OCC(O)C1O (stereo not drawn) [Compound 60]
GI50 (SF-268 [1]): 5.75 µM
Inhibition at 10 μM (SF-268 [1]; 10 μM): 67.83%
GI50 (DU-145): 1.8 ± 0.1 µM
GI50 (SR): 0.386 µM
Inhibition at 10 μM (SR; 10 μM): 48.67%
Inhibition at 10 μM (HCC-2998): 73.29%
GI50 (MOLT-4): 1.22 µM
Inhibition at 10 μM (MOLT-4; 10 μM): 64.41%
improved activity over the parent drug (H1299): 13 fold
GI50 (H1299; read-out: GI50 H1299 lung (−p53)): 0.37 ± 0.04 µM
GI50 (NCI-H226): 0.925 µM
Inhibition at 10 μM (NCI-H226; 10 μM): 84.25%
GI50 (SF-268 [2]): 1.5 ± 0.1 µM
Inhibition at 10 μM (RPMI-8226): 15.94%
GI50 (MDA-MB-231): 1.39 µM
Inhibition at 10 μM (MDA-MB-231; 10 μM): 87.54%
GI50 (MALME-3M): 20.2 µM
Inhibition at 10 μM (MALME-3M; 10 μM): 69.73%
GI50 (SK-MEL-5): 17.7 µM
Inhibition at 10 μM (SK-MEL-5; 10 μM): 79.00%
GI50 (SNB-19): 33.4 µM
Inhibition at 10 μM (SNB-19; 10 μM): 65.81%
GI50 (A498): 21.8 µM
Inhibition at 10 μM (A498; 10 μM): 114.47%
improved activity over the parent drug (HCT-15 [3]): 15 fold
GI50 (HCT-15 [3]; read-out: GI50 HCT-15 colorectal): 0.53 ± 0.05 µM
GI50 (OVCAR-8): 9.13 µM
Inhibition at 10 μM (OVCAR-8; 10 μM): 68.13%
GI50 (U251): 13.1 µM
Inhibition at 10 μM (U251; 10 μM): 59.94%
Inhibition at 10 μM (K-562): 88.55%
GI50 (ACHN): 4.34 µM
Inhibition at 10 μM (ACHN; 10 μM): 14.27%
GI50 (KM12): 30 µM
Inhibition at 10 μM (KM12; 10 μM): 97.57%
GI50 (MCF7): 1.8 ± 0.1 µM
GI50 (CAKI-1): 11.5 µM
Inhibition at 10 μM (CAKI-1; 10 μM): 13.59%
GI50 (HOP-62): 8.28 µM
Inhibition at 10 μM (HOP-62; 10 μM): 73.20%
GI50 (SF-295): 6.47 µM
Inhibition at 10 μM (SF-295; 10 μM): 56.59%
improved activity over the parent drug (HT29): 12 fold
GI50 (HT29; read-out: GI50 HT29 colorectal): 0.41 ± 0.06 µM
GI50 (TK-10): 31.7 µM
Inhibition at 10 μM (TK-10; 10 μM): 97.20%
GI50 (HOP-92): 4.03 µM
Inhibition at 10 μM (HOP-92; 10 μM): 58.81%
GI50 (SK-MEL-2): 20.2 µM
Inhibition at 10 μM (SK-MEL-2; 10 μM): 100.16%
GI50 (OVCAR-4): 29.2 µM
Inhibition at 10 μM (OVCAR-4; 10 μM): 77.16%
GI50 (HCT-15 [4]): 19.7 µM
Inhibition at 10 μM (HCT-15 [4]; 10 μM): 77.10%
